In experiment [1] the target is Galectin-3 (Homo sapiens, UniProt P17931). The experiment is described as follows: Biological Assay. On the procedure:
(§1) The inhibitory activity of compounds is determined in competitive binding assays. This spectrophotometric assay measures the binding of biotinylated human Gal-3 (hGal-3) or human Gal-1 (hGal-1), respectively, to a microplate-adsorbed glycoprotein, asialofetuin (ASF) (Proc Natl Acad Sci USA. 2013 Mar. 26; 110(13):5052-7.). Alternatively, and preferably, a human Gal-1 version in which all six cysteines are substituted by serines may be used. Briefly, compounds are serially diluted in DMSO (working dilutions). ASF-coated 384 well plates are supplemented with 22.8 μL/well of biotinylated hGal-3 or hGal-1 in assay buffer (i.e. 300-1000 ng/mL biotinylated hGal-3 or hGal-1) to which 1.2 μL of compound working dilutions are added and mixed. Plates are incubated for 3 hours at 4° C., then washed with cold assay buffer (3×50 uL), incubated for 1 hour with 25 μL/well of a streptavidin-peroxidase solution (diluted in assay buffer to 80 ng/mL) at 4° C., followed by further washing steps with assay buffer (3×50 uL). Finally, 25 μL/well of ABTS substrate is added.

Experiment [2] addresses Galectin-1 (Homo sapiens, UniProt P09382). The experiment is described as follows: Biological Assay. On the procedure: as §1

Sequence of Galectin-3 (P17931 whole entry): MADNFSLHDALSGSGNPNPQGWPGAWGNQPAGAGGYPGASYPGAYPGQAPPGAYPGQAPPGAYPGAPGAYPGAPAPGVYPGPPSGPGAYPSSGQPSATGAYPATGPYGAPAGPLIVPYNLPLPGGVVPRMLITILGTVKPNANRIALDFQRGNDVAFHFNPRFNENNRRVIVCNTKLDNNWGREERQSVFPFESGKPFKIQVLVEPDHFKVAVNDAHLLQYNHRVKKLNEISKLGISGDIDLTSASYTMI
Sequence of Galectin-1 (P09382 whole entry): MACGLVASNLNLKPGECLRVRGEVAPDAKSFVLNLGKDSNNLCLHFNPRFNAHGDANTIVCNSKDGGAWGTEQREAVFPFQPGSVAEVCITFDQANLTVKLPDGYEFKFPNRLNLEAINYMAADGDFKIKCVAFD

For orientation: IC50 means the midpoint of a concentration-inhibition curve. Low readings indicate greater potency, high ones weaker potency. The compound `N#Cc1cc(Cl)cc(N(C(=O)[C@@H]2O[C@H](CO)[C@H](O)[C@H](n3cc(-c4cc(F)c(Cl)c(F)c4)nn3)[C@H]2O)[C@H]2CCC[C@@H]2O)c1` [US20230348442, Example 1H.5.4] came in with an IC50 in experiment [1] of 19.9 nM. In the case of `O=C([C@@H]1O[C@H](CO)[C@H](O)[C@H](n2cc(-c3cc(F)c(F)c(F)c3)nn2)[C@H]1O)N(c1cc(Cl)cc(Cl)c1)[C@H]1CCC[C@@H]1O` [US20230348442, Example 1H.1.2], the IC50 is 2090 nM in experiment [2] and 29.4 nM in experiment [1].

As to `CO[C@@H]1[C@@H](n2cc(-c3cc(F)cc(Br)c3)nn2)[C@@H](O)[C@@H](CO)O[C@H]1C(=O)N(c1cc(Br)cc(C#N)c1)[C@H]1CCC[C@@H]1O` [US20230348442, Example 1.10.5], in experiment [1], the IC50 stood at 69.2 nM. In turn, `CO[C@@H]1[C@@H](n2cc(-c3cc(F)c(F)c(F)c3)nn2)[C@@H](O)[C@@H](CO)O[C@H]1C(=O)N(c1cc(C)cc(Br)c1)[C@H]1CC[C@@H]1O` [US20230348442, Example 2.1.12] yielded a 50% inhibitory concentration (IC50) in experiment [1] of 111 nM. In experiment [1], `CO[C@@H]1[C@@H](n2cc(-c3cc(F)c(Br)c(F)c3)nn2)[C@@H](O)[C@@H](CO)O[C@H]1C(=O)N(c1cc(Br)cc(C#N)c1)[C@H]1CCC[C@@H]1O` [US20230348442, Example 1.6.5] registered a concentration for half-maximal inhibition (IC50) of 25.5 nM.

Source of the values: BindingDB's records for patent US20230348442 (Idorsia Pharmaceuticals, 2023).
